This is an account of results in patent US10821093B2, “Antibacterial microelement chelates and the use thereof in animal feeds” (priority 2012, dated 2020).

One data set deals with Arcanobacterium piogenes. As to the kind of experiment: MIC. The class given is cell-based.
The subject of a further data set is Escherichia coli. As to the kind of experiment: MIC, liquid culture dilution (single chelates and cross-dilution combinations). The class given is cell-based.
A further data set concerns Staphylococcus aureus. The data set can be described thus: MIC, liquid culture dilution. The class given is cell-based.
The test system of data set [1] is Clostridium perfringens. The class given is cell-based.
Data set [2] has as its system Brachyspira hyodysenteriae. The data set can be described thus: MIC (single chelates and combinations).
The next data set deals with Streptococcus agalactiae. The data set can be described thus: MIC, liquid culture dilution. The data set is classed as cell-based.
A further data set has as its system Micrococcus luteus. As to the kind of experiment: MIC, liquid culture dilution. The class given is cell-based.
In another data set the test system is Saccharomyces cerevisiae. The data set can be described thus: MIC, liquid culture dilution. The data set is classed as cell-based.
The test system of another data set is LACTIC ACID PRODUCERS
As to the kind of experiment: MIC, liquid culture dilution. The data set is classed as cell-based.

In a further data set the test system is Salmonella enterica. The data set can be described thus: MIC, liquid culture dilution (single chelates and cross-dilution combinations). The data set is classed as cell-based, Salmonella enterica subp. Enterica serovar enteritidis.
In data set [3] the test system is Clostridium perfringens. To be noted: treatment group III.
The next data set relates to Lawsonia intracellularis. How it is done:
Experimental feeding was performed with growing pigs, under pilot environmental conditions with the animal paired methods on a stock infected with the pathogen Lawsonia intracellularis. The control group received the usual antibiotic supplement mixed into the feed.

Data set [4] concerns Clostridium perfringens.
The subject of another data set is LSE. The data set can be described thus: Minimal lethal concentration (CID). The data set is classed as cell-based, Saccharomyces cerevisiae. How it is done:
(§1) It is the concentration of the active ingredient that causes the complete death of the microbes. Under sterile conditions within a laminar box, a dilution series was prepared from the liquid culture mediums that were incubated for 24 hours, then from the dilution series 100 μl each was placed onto agar dishes and spread with a sterile glass rod. The incubation period is 24 hours under conditions favorable for the growth of the microbe, then the number of colonies on the agar dishes are counted.
(§2) In the case where no colonies are visible on the culture medium after the incubation, it indicates the microbe killing effect (CID) of the trace element chelate. The number of countable colonies grown on the agar dishes gives the actual MIC value of the given trace element chelate.

Another data set has as its system Clostridium. As to the kind of experiment: Minimal lethal concentration (CID). The data set is classed as cell-based. How it is done: as §1, §2
In the next data set the test system is Lactococcus. The data set can be described thus: Minimal lethal concentration (CID). The class given is cell-based. How it is done: as §1, §2
The subject of the next data set is E. coli. From the text: The experimental animals had E. coli infection. The control group received the standard antibiotic supplement in the feed to control the E. coli infection.
[5] abbreviates: 1 kg/t in feed, 101 days of fattening.
[6] abbreviates: vs antibiotic-supplemented control.

Marks after values point to notes of the source that are not given here.

Take `NCC(=O)[O-].[Ag+]` [Ag glycinate]: the “Minimal inhibitory concentration (MIC)” value with Arcanobacterium piogenes was found to be 184 ppm.
As to `NCC(=O)[O-].NCC(=O)[O-].O.[Cu+2]` [Copper (H2O) bis-glycinate], the “Minimal inhibitory concentration (MIC)” value in the data set on Escherichia coli was determined as 300 ppm; with Arcanobacterium piogenes, 32 ppm; with Staphylococcus aureus, 5.3 ppm; in the data set with Clostridium perfringens [1], 100 ppm; in data set [2], 96 ppm; with Streptococcus agalactiae it was 171 ppm. Further, the “Minimal inhibitory concentration (MIC)” value with Micrococcus luteus amounted to 60 ppm; in the data set on Saccharomyces cerevisiae it was 800 ppm; in the data set on LACTIC ACID PRODUCERS, 800 ppm; in the data set on Salmonella enterica, 400 ppm.
For `[NH3+][Cu]1([NH3+])[O]C(=O)CN(CC(=O)O)CCN(CC(=O)O)CC(=O)[O]1` [Cu diamino ethylenediamine tetraacetic acid], in the data set with Clostridium perfringens [3], the “Egg yield increase compared to the negative control group” value came out at 6.7% and the “Egg yield increase compared to the positive control group” value amounted to 22.4%. For the same molecule, in the data set with Clostridium perfringens [3] (36 hens, C. perfringens inoculated), the Total eggs worked out at 1868 pc. In the data set with Clostridium perfringens [3] (C. perfringens inoculated), this molecule returned a No. of eggs/hen of 51.80 and a Total egg weight of 125.70 kg. The molecule also registered a Weight of egg with Clostridium perfringens [3] (g/pc.) of 67.2 g. For the same molecule, the “Minimal inhibitory concentration (MIC)” value with Clostridium perfringens [1] came to 20 ppm. Besides, the “Minimal inhibitory concentration (MIC)” value in data set [2] is listed as 80 ppm.
Consider `[NH3+][Cu]([NH3+])([O]C(=O)C(O)CC(=O)O)[O]C(=O)C(O)CC(=O)O` (stereo not shown) [Cu diammine bis-malate], for which the “Minimal inhibitory concentration (MIC)” value in the data set on Escherichia coli is recorded as 262 ppm; in the data set on Staphylococcus aureus, 262 ppm; in the data set with Clostridium perfringens [1], 65 ppm; in data set [2] it was 143 ppm; in the data set on Streptococcus agalactiae, 131 ppm.
Take `O.O=C(O)CC(O)C(=O)[O-].O=C(O)CC(O)C(=O)[O-].[Cu+2]` (stereo not shown) [Cu(H2O) bis-malate]: the “Minimal inhibitory concentration (MIC)” value with Escherichia coli was 120 ppm; in the data set with Clostridium perfringens [1], 50 ppm; in data set [2] it was 88 ppm; in the data set on Salmonella enterica, 210 ppm.
Take `O=C(O)CC(O)C(=O)[O-].O=C(O)CC(O)C(=O)[O-].[Zn+2]` (stereo not shown) [Zn bis-malate]: the “Minimal inhibitory concentration (MIC)” value with Escherichia coli is 280 ppm; in the data set on Saccharomyces cerevisiae it was 600 ppm; with LACTIC ACID PRODUCERS, 600 ppm; with Salmonella enterica, 360 ppm.
`[NH2][Zn]([NH2])([O]C(=O)C(O)CC(=O)O)[O]C(=O)C(O)CC(=O)O` (stereo not shown) [Zn diammine bis-malate, Zn diammonium malate]: the “Minimal inhibitory concentration (MIC)” value with Escherichia coli was 80 ppm; in the data set with Arcanobacterium piogenes it was 21 ppm; in the data set on Staphylococcus aureus, 80 ppm; with Clostridium perfringens [1] it was 340 ppm; in data set [2] it was 2315 ppm; in the data set on Streptococcus agalactiae it was 20 ppm. Also, the “Minimal inhibitory concentration (MIC)” value is 500 ppm in the data set with Saccharomyces cerevisiae, 500 ppm with LACTIC ACID PRODUCERS and 120 ppm with Salmonella enterica.
With `C[C@H](N)C(=O)[O-].C[C@H](N)C(=O)[O-].O.[Zn+2]` [Zn(H2O) bis-alaninate], the “Minimal inhibitory concentration (MIC)” value is given as 100 ppm in the data set on Escherichia coli, more than 4000 ppm with Clostridium perfringens [1], more than 4000 ppm in data set [2] and 110 ppm with Salmonella enterica.
In the data set with Lawsonia intracellularis (setting [5]), `NCC(=O)[O][Cu]([NH3+])([NH3+])[O]C(=O)CN` [copper diammonium bis-glycinate] showed an Added weight of 76.15 kg, an Average slaughter weight of 107.01 kg and a Feed utilization of 3.10 kg/kg. Besides, in the data set on Lawsonia intracellularis (setting [6]), the “Added weight higher than control” value came to 6.2%, the “Feed utilization better than control” value is 6.8% and the “Slaughter weight higher than control” value came to 1.6%. Besides, in the data set on Clostridium perfringens [4] (1.0 kg/t in feed, 42 days), the Relative feed utilization was determined as 1.89 kg/kg, the Total feed use is reported as 59 880 kg, the Total living weight is listed as 32 395 kg and the Total weight gain is reported as 31 681 kg. Besides, the Chicken shipped in the data set on Clostridium perfringens [4] (1.0 kg/t in feed, 42 days, 17 100 chicks at start) was 16 238. The Mean slaughter weight in the data set on Clostridium perfringens [4] (1.0 kg/t in feed, 42 days, difference significant at P ≤ 0.001) is 1995*** g. The “Faeces, signs of diarrhea” value in the data set on Clostridium perfringens [4] (experimental group, observation) was “no signs of a change indicating diarrhea was visible”. Moreover, the Adverse side effects entry in the data set on Clostridium perfringens [4] (feeding the experimental composition, 1.0 kg/t) is on record as “No adverse side effects were observed”. In addition, in the data set with Clostridium perfringens [4] (vs unsupplemented control), the “Chicken shipped, difference to control group” value was 4; the “Relative feed utilization, difference to control group (less feed per unit live weight gain)” value came to 3.6%; the “Total feed use, difference to control group” value was determined as 620 kg.
For the molecule Iron mono-glycinate, the “Minimal inhibitory concentration (MIC)” value in the data set with Escherichia coli worked out at 350 ppm; with Micrococcus luteus, 100 ppm; in the data set on Saccharomyces cerevisiae, 1000 ppm; with LACTIC ACID PRODUCERS it was 1000 ppm; in the data set on Salmonella enterica, 450 ppm.
Regarding Manganese mono-glycinate, the “Minimal inhibitory concentration (MIC)” value in the data set on Escherichia coli is given as 300 ppm; with Micrococcus luteus, 100 ppm; in the data set with Saccharomyces cerevisiae, 1000 ppm; in the data set on LACTIC ACID PRODUCERS, 1000 ppm; with Salmonella enterica, 300 ppm.
For Zn malate [Zn(H2O)-bis-malate], the “Minimal inhibitory concentration (MIC)” value in the data set on Escherichia coli is 90 ppm; in the data set on Staphylococcus aureus it was 160 ppm; in the data set with Clostridium perfringens [1], 360 ppm; in data set [2], 4400 ppm; with Streptococcus agalactiae it was 180 ppm; in the data set with Saccharomyces cerevisiae, 600 ppm. The “Minimal inhibitory concentration (MIC)” value amounted to 500 ppm in the data set on LACTIC ACID PRODUCERS and 120 ppm in the data set on Salmonella enterica.
As to Zn(Glycine)2 [Zinc (H2O) bis-glycinate], the “Minimal inhibitory concentration (MIC)” value in the data set with Escherichia coli is recorded as 120 ppm; in the data set with Staphylococcus aureus, 4 ppm; in the data set with Clostridium perfringens [1] it was 180 ppm; in data set [2] it was more than 4000 ppm; in the data set with Streptococcus agalactiae, 29 ppm; with Micrococcus luteus, 60 ppm. Moreover, the “Minimal inhibitory concentration (MIC)” value with Saccharomyces cerevisiae is listed as 500 ppm; in the data set with LACTIC ACID PRODUCERS, 800 ppm; in the data set on Salmonella enterica, 220 ppm.
Take copper mono-glycinate chelate: the “Minimal inhibitory concentration (MIC)” value in the data set on Escherichia coli is reported as 400 ppm; with Arcanobacterium piogenes, 92 ppm; with Clostridium perfringens [1], 50 ppm; in data set [2], 90 ppm; with Micrococcus luteus it was 200 ppm; in the data set with Saccharomyces cerevisiae, 800 ppm. For the same molecule, the figures for the “Minimal inhibitory concentration (MIC)” value with LACTIC ACID PRODUCERS and in the data set on Salmonella enterica were 800 ppm and 400 ppm, respectively. Besides, the values for the CID concentration in the data set with LSE, in the data set with Clostridium (Clostridium) and with Lactococcus were 800 ppm, 200 ppm and 800 ppm, respectively. In the data set on Clostridium (Clostridium strains), the “CID value relative to MIC value” is listed as “twice as much”.
In the data set with E. coli (38 days), zinc ammonium maleinate showed a Daily weight gain of 391 g and a Feed utilization of 2.04 kg/kg. Moreover, in the data set on E. coli (38 days, initial weight 9.19 kg), the “Body weight at the end of the experiment” value was 24.05 kg. In the data set on E. coli (setting [6]), the “Average daily weight gain higher than control group” value amounted to 45% and the “Feed utilization better than control group” value is listed as 13%.
